Values after ≈ are worked out from the molar mass of the structure shown. Structures can show the parent of a compound that is named as a salt. Where two headings read alike, the source gives them in different places.
Experiments:
[1] = Absolute aqueous solubility; format: physicochemical; conditions: 25 °C, thermodynamic from solid; water, about 6 hrs equilibration, 25 deg centigrade, UV
Description: The objective of the study was to determine the absolute solubility of the powder form of the test compounds in water. Brief procedure: The powder form of test compounds was allowed to saturate in an aqueous medium and is equilibrated for about 6 hrs until the compound precipitates. The precipitated solution was centrifuged at 15,000 rpm for 10 mins at 25 deg centigrade and the supernatant solution was analyzed by UV spectrometry. If required the supernatant was diluted further until the absorbance by UV spectroscopy was within the limits of the standard curve obtained with the test compound. λmax was selected from UV spectra having maximum absorbance for that compound.

[2] = biological target: T1, CYP 1A2 (Homo sapiens, UniProt P05177); assay: Cytochrome-P450 isoforms liability determination; format: in vitro ADME
T1 construct: purchased
T1 sequence (P05177 1-516): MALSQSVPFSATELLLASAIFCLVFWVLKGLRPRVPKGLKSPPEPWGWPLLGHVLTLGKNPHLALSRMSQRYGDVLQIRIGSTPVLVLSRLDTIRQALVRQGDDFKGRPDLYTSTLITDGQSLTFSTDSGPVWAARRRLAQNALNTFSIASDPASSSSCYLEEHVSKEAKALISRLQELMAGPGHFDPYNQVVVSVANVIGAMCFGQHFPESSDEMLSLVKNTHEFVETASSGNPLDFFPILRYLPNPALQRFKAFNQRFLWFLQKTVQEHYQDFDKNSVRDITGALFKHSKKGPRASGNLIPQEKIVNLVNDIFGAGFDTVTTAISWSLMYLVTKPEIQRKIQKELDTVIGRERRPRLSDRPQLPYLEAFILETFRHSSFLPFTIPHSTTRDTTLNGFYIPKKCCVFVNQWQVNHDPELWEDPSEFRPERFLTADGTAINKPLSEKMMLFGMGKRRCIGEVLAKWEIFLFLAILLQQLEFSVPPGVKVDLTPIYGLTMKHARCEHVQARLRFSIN
Description: (§1) To determine the test compound liability towards Human cytochrome 450 (hCYP450) Isoforms fluorescence based screening kits.
(§2) Brief procedure: 2× test compounds were prepared by dilution with deionized water. A serial dilution of the test compound was done. 2× solution of known inhibitor were used as a positive control. 40 μL of the 2× solution that is prepared was added to the desired wells. Two replicates were included for every compound. 50 μL of the Master premix (premix of CYP450 Baclosomes, reagents and regenerating system) was dispensed into each well. The plate was incubated for 20 min at room temperature to allow the compounds to interact with the CYP450enzymes. The reaction was started by adding 10 μL of the substrate and NADP^+ mixture. The plate was incubated for the desired amount of time, and then 10 μL of stop reagent was added to each well to quench the reaction. The fluorescence was measured in the fluorescent plate reader at excitation and emission wavelengths as recommended, depending on the substrate used.

[3] = biological target: T2, CYP 2C19 (Homo sapiens, UniProt P33261); assay: Cytochrome-P450 isoforms liability determination; format: in vitro ADME
T2 construct: purchased
Description: as §1, §2

[4] = biological target: T3, CYP 2C9 (Homo sapiens, UniProt P11712); assay: Cytochrome-P450 isoforms liability determination; format: in vitro ADME
T3 construct: purchased
Description: as §1, §2

[5] = biological target: T4, CYP 2D6 (Homo sapiens, UniProt P10635); assay: Cytochrome-P450 isoforms liability determination; format: in vitro ADME
T4 construct: purchased
Description: as §1, §2

[6] = tested on: A431; assay: Anti-proliferative activity (GI50); format: cell-based; conditions: Homo sapiens
Description: (§3) Cells were seeded in a 96-well cell culture plates at a concentration of 10,000 cells per well and incubated at 37° C. in CO2 incubator.
(§4) Twenty-four hours later cells were treated with different concentrations (100, 10, 1, 0.1, and 0.01 μM) of compound dissolved in DMSO and incubated for 48 hours. For To measurement, 24 hours after seeding the cells, 20 μL of 3-(4.5-dimethyl-2- thiazolyl)-2,5-diphenyl-2H-tetrazolium (MTT) solution per well was added to the T0 plate and incubated for 3 hours at 37° C. in a CO2 incubator.
(§5) The plate containing cells and test compounds was treated similarly after 48 hours of incubation. After 3 hours of MTT addition, well contents were aspirated carefully followed by addition of 100 μL DMSO per well. Plates were agitated to ensure dissolution of the formazan crystals in DMSO and absorbance was read at 570 nm (A570). […] From the percentage growths a dose response curve was generated and GI50 values were interpolated from the growth curves.

[7] = tested on: Calu-6; assay: Anti-proliferative activity (GI50); format: cell-based; conditions: Homo sapiens
Description: as §3, §4, §5

[8] = tested on: Colo-205; assay: Anti-proliferative activity (GI50); format: cell-based; conditions: Homo sapiens
Description: as §3, §4, §5

[9] = tested on: HCT-15; assay: Anti-proliferative activity (GI50); format: cell-based; conditions: Homo sapiens
Description: as §3, §4, §5

[10] = tested on: Hela-S3; assay: Anti-proliferative activity (GI50); format: cell-based; conditions: Homo sapiens
Description: as §3, §4, §5

[11] = tested on: IMR-32; assay: Anti-proliferative activity (GI50); format: cell-based; conditions: Homo sapiens
Description: as §3, §4, §5

[12] = tested on: PANC-1; assay: Anti-proliferative activity (GI50); format: cell-based; conditions: Homo sapiens
Description: as §3, §4, §5

[13] = tested on: RPMI-8226; assay: Anti-proliferative activity (GI50); format: cell-based; conditions: Homo sapiens
Description: as §3, §4, §5

[14] = tested on: SH-SY-5Y; assay: Anti-proliferative activity (GI50); format: cell-based; conditions: Homo sapiens, SH-SY5Y, read-out: Anti-proliferative activity (GI50) SH-SY-5Y
Description: as §3, §4, §5

[15] = tested on: cleaved PARP; assay: PARP cleavage in HeLa cells (Western Blot); format: cell-based; parameters: key: represented by the symbol ‘+’ which indicates the relative extent of modulation; ++: represented by the symbol ‘+’ which indicates the relative extent of modulation; +++: represented by the symbol ‘+’ which indicates the relative extent of modulation; ++++: represented by the symbol ‘+’ which indicates the relative extent of modulation; conditions: 24 hrs, 0.03-3.0 μM
Description: HeLa Cells were seeded (0.3×10^6 Cells/well) into a 6 well plate and after 24 hrs compounds were added in 5 different concentrations (0.03, 0.1, 0.3, 1.0, 3.0 μM). After 24 hrs cells were lysed and cellular extract was used for assessing apoptotic activity by detection of cleaved PARP by Western Blot using monoclonal Anti-poly(ADP-Ribose) polymerase antibody, Clone C-2-10(Sigma).

[16] = fluorescence based kit, read-out: CYP liability (IC50 in μM) CYP 1A2
[17] = fluorescence based kit, read-out: CYP liability (IC50 in μM) CYP 2C19
[18] = fluorescence based kit, read-out: CYP liability (IC50 in μM) CYP 2C9
[19] = fluorescence based kit, read-out: CYP liability (IC50 in μM) CYP 2D6
[20] = A-431, Table 9, Skin, read-out: Anti-proliferative activity (GI50) A431
[21] = Calu-6, Table 9, Lung, read-out: Anti-proliferative activity (GI50) Calu-6
[22] = COLO 205, Table 9, Colon, read-out: Anti-proliferative activity (GI50) Colo-205
[23] = HCT-15, Table 9, Colon, read-out: Anti-proliferative activity (GI50) HCT-15
[24] = HeLa S3, Table 9, Cervix, read-out: Anti-proliferative activity (GI50) Hela-S3
[25] = IMR-32, Table 9, Brain, read-out: Anti-proliferative activity (GI50) IMR-32
[26] = PANC-1, Table 9, Pancreas, read-out: Anti-proliferative activity (GI50) PANC-1
[27] = RPMI-8226, Table 9, Leukemia, read-out: Anti-proliferative activity (GI50) RPMI-8226

T4 sequence (P10635 whole entry, canonical isoform): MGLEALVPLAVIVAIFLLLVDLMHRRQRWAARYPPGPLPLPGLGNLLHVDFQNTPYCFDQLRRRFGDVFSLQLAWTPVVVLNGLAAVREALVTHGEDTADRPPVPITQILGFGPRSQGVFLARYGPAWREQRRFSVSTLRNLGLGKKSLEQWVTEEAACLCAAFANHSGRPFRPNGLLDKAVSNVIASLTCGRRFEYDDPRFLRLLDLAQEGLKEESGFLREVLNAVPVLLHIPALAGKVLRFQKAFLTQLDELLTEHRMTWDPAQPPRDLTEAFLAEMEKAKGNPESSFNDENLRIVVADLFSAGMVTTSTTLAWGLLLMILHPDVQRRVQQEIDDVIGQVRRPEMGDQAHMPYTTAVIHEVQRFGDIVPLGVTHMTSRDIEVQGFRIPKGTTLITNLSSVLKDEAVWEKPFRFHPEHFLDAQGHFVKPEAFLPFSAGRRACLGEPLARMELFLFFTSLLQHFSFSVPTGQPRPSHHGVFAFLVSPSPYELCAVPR
T3 sequence (P11712 whole entry, canonical isoform): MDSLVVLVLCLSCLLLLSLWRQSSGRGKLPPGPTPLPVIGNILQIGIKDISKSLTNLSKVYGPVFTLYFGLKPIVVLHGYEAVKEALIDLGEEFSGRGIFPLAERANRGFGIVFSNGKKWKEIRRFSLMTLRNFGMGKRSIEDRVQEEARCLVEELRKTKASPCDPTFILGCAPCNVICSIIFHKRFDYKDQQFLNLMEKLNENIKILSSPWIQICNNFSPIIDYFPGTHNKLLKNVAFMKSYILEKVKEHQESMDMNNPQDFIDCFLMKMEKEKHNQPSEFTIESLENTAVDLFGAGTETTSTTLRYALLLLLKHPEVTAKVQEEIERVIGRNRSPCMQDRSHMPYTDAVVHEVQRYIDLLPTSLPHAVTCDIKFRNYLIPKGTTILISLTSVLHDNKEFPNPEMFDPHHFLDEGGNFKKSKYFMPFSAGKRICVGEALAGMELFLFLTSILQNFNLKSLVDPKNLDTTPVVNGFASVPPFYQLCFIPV
T2 sequence (P33261 whole entry, canonical isoform): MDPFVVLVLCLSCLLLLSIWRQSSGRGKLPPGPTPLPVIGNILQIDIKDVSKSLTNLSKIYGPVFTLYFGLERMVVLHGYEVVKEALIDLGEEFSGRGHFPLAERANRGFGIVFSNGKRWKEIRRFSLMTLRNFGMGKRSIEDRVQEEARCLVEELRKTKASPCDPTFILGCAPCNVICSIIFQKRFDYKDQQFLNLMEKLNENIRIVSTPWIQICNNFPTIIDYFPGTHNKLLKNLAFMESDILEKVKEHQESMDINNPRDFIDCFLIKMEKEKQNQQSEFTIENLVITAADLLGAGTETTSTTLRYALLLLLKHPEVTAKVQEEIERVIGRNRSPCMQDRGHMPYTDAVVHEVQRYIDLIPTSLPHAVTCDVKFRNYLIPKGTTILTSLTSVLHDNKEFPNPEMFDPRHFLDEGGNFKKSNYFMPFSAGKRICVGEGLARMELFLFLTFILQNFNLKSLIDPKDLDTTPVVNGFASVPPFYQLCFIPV

Row | Structure (SMILES) | solubility [1] | IC50 [2, 16] | IC50 [3, 17] | IC50 [4, 18] | IC50 [5, 19] | GI50 [6, 20] | GI50 [7, 21] | GI50 [8, 22] | GI50 [9, 23] | GI50 [10, 24] | GI50 [11, 25] | GI50 [12, 26] | GI50 [13, 27] | GI50 ([14]; Table 9, Brain) | PARP cleavage [15] | other results
1 | O=C(NO)c1ccc(Cn2cc(-c3ccc(CN4CCOCC4)cc3)nn2)cc1 [Example 9, N-Hydroxy-4-[4-(4-morpholin-4-ylmethyl-phenyl)-[1,2,3]triazol-1-ylmethyl]-benzamide] | 4700 µg/mL (≈ 11.9 mM) | > 60 µM | > 60 µM | > 60 µM | > 60 µM | 1200 ± 533 nM | 1400 ± 310 nM | 300 ± 71 nM | 4100 ± 3200 nM | 600 ± 160 nM | 900 ± 201 nM | 6600 nM | 500 ± 430 nM | 200 ± 60 nM | +++ | 
2 | O=C(/C=C/c1cccc(Cn2cc(-c3ccc(CN4CCOCC4)cc3)nn2)c1)NO [Example 25, N-Hydroxy-3-{3-[4-(4-morpholin-4-ylmethyl-phenyl)-[1,2,3]triazol-1-ylmethyl]-phenyl}-acrylamide hydrochloride] | 2900 µg/mL | > 60 µM | > 60 µM | 51.5 µM | > 60 µM | 200 ± 30 nM | 600 ± 180 nM | 200 ± 30 nM | 1700 ± 890 nM | 200 ± 20 nM | 200 ± 20 nM | 4000 nM | 200 ± 250 nM | 200 ± 30 nM | +++ | 
3 | O=C(NO)c1ccc(Cn2cc(-c3ccc(CN4CCCC4)cc3)nn2)cc1 [Example 8, N-Hydroxy-4-[4-(4-pyrrolidin-1-ylmethyl-phenyl)-[1,2,3]triazol-1-ylmethyl]-benzamide] | 5100 µg/mL (≈ 13.5 mM) | > 60 µM | > 60 µM | > 60 µM | 26 µM | 500 ± 130 nM | 600 ± 330 nM | 300 ± 50 nM | 19300 ± 3800 nM | 400 ± 90 nM | 400 ± 90 nM | 1300 nM | 400 ± 300 nM | 200 ± 80 nM | +++ | 
4 | CN(C)Cc1ccc(-c2cn(Cc3ccc(/C=C/C(=O)NO)cc3)nn2)cc1 [Example 21] | 11600 µg/mL (≈ 30.7 mM) | > 60 µM | > 60 µM | > 60 µM | > 60 µM | 400 ± 80 nM | 400 ± 120 nM | 400 ± 40 nM | 1800 ± 1140 nM | 200 ± 80 nM | 200 ± 40 nM | 1400 nM | 300 ± 160 nM | 100 nM | ++++ | 
5 | O=C(/C=C/c1ccc(Cn2cc(-c3ccc(CN4CCCC4)cc3)nn2)cc1)NO [Example 16, N-Hydroxy-3-{4-[4-(4-pyrrolidin-1-ylmethyl-phenyl)-[1,2,3]triazol-1-ylmethyl]-phenyl}-acrylamide] | 9400 µg/mL (≈ 23.3 mM) | > 60 µM | > 60 µM | > 60 µM | 13.2 µM | 280 ± 50 nM | 410 ± 160 nM | 310 ± 60 nM | 9800 ± 4300 nM | 230 ± 120 nM | 250 ± 70 nM | 1030 nM | 150 ± 50 nM | 340 ± 33 nM | ++++ | 
6 | O=C(CCCCCCC(=O)Nc1ccccc1)NO [SAHA, Suberoylanilide Hydroxamic Acid, reference compound] | 230 µg/mL (≈ 0.87 mM) |  |  |  |  |  |  |  |  |  |  |  |  |  | ++ | IC50 [2]: 9.7 µM; IC50 [3]: 2.9 µM; IC50 [4]: 29.7 µM; IC50 [5]: 3.6 µM; GI50 ([6]; A-431, read-out: Anti-proliferative activity (GI50) A431): 1900 ± 1000 nM; GI50 ([7]; Calu-6, read-out: Anti-proliferative activity (GI50) Calu-6): 3500 ± 500 nM; GI50 ([8]; COLO 205, read-out: Anti-proliferative activity (GI50) Colo-205): 1600 ± 100 nM; GI50 ([9]; HCT-15, read-out: Anti-proliferative activity (GI50) HCT-15): 5200 ± 1900 nM; GI50 ([10]; HeLa S3, read-out: Anti-proliferative activity (GI50) Hela-S3): 2900 ± 500 nM; GI50 ([11]; IMR-32, read-out: Anti-proliferative activity (GI50) IMR-32): 1800 ± 200 nM; GI50 ([12]; PANC-1, read-out: Anti-proliferative activity (GI50) PANC-1): 21900 nM; GI50 ([13]; RPMI-8226, read-out: Anti-proliferative activity (GI50) RPMI-8226): 2200 ± 2300 nM; GI50 [14]: 800 ± 400 nM

— patent US20120101099A1, “HISTONE DEACETYLASE INHIBITORS” (ANTHEM BIOSCIENCES PRIVATE LIMITED, priority 2009, published 2012)
